Measured values published in the NIST ThermoML archive (doi:10.1021/je800087p).
Numbers after ± are expanded uncertainties.

Assays:
[1] = Liquid; Ebulliometric method (Recirculating still)
[2] = refractive index (Na D-line) (dimensionless); conditions: 298.15 K; 101.3 kPa; Liquid; Standard Abbe refractometry

Row | Normal boiling temperature [1] | refractive index [2] | SMILES
1 | 152.48 ± 0.1 °C | 1.48829 ± 0.00053 | CC(C)c1ccccc1 [isopropylbenzene]
2 | 66.1 ± 0.1 °C | 1.40443 ± 0.0005 | C1CCOC1 [tetrahydrofuran]
3 | 88.16 ± 0.1 °C | 1.41899 ± 0.00063 | C1CCOCC1 [tetrahydropyran]
